Paper PMC4833311, “Structure of Type IIL Restriction-Modification Enzyme MmeI in Complex with DNA Has Implications for Engineering New Specificities” (PLoS Biology, 2016)

B1: 29-mer MmeI site duplex, 5-bromouracil substituted (dsDNA)
DNA 1: TATCCGACAUAACGCUAGUCACUAGCUUC
DNA 2: GAAGCUAGUGACUAGCGUTAUGTCGGATA
modifications: U = 5-bromouracil (replaces several thymines outside the recognition site) in both strands

Tests used:
[1] = molecular target: T1, MmeI (Methylophilus methylotrophus, UniProt B2MU09); assay: X-ray crystal structure, […] Å (SAD); type: binding; conditions: ternary complex with 29-mer DNA containing TCCGAC; AdoMet site of methyltransferase domain; pH 7.5, 293 K; calcium ions in model
T1 construct: gene mmeIRM; residues 156-906 modelled, endonuclease domain 1-155 disordered; purified as described previously
T1 sequence (B2MU09 1-919): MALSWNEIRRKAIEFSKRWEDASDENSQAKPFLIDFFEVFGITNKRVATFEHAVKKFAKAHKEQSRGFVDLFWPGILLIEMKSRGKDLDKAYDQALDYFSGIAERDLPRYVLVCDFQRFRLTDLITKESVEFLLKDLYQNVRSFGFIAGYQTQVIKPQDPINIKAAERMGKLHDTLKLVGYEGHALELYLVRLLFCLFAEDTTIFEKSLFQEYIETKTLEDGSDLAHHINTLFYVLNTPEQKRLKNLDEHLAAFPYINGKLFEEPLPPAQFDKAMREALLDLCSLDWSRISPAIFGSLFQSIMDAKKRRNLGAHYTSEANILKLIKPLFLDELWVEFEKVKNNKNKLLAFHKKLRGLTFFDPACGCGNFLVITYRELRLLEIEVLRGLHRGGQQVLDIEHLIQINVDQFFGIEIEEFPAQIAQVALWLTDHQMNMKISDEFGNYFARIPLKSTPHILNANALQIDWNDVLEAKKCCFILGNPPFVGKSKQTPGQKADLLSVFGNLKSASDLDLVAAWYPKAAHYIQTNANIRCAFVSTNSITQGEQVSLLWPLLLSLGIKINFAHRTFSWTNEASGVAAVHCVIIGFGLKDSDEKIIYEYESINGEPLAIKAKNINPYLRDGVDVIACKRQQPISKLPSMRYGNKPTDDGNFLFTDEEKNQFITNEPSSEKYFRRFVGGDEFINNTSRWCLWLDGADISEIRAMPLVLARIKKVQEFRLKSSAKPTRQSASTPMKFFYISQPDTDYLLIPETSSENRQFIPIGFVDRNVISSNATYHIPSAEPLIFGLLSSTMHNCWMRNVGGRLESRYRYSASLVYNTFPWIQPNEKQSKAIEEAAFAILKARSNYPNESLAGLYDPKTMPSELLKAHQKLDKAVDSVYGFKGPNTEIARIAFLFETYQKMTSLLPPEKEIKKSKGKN

[2] = molecular target: T2, MmeI (Methylophilus methylotrophus, UniProt B2MU09 1-919); assay: X-ray crystallography (2.6 A); Sinefungin; Ca2+ in model; Crystallization: 20% PEG 4K, 0.1 M Hepes pH 7.5, 0.1 M (NH4)2SO4, 293 K, with Sinefungin; no solution binding assay; conditions: protein: recombinant; blunt
T2 sequence: T1 sequence (B2MU09 1-919)

Molecule | X-ray crystal structure, 2.6 Å (SAD) [1] | binding result [2]
Nc1ncnc2c1ncn2[C@@H]1O[C@H](C[C@@H](N)CC[C@H](N)C(=O)O)[C@@H](O)[C@H]1O [Sinefungin] | The SAM analog Sinefungin is tightly bound within the MTase domain via extensive hydrogen bonding | 
B1 |  | binds
